# Positions of bridges follow the written chain, without caps; N, C: chain ends. Residues, ends and D or L forms follow the SMILES beside them. Chains are numbered I, II in the order given. No end group written: not given here.
# Biological target: T1, VEGF165/NRP-1 (Rattus norvegicus, UniProt Q9QWJ9)
# T1 construct: purchased R&D Systems
# T1 sequence (Q9QWJ9 22-854 limits assumed): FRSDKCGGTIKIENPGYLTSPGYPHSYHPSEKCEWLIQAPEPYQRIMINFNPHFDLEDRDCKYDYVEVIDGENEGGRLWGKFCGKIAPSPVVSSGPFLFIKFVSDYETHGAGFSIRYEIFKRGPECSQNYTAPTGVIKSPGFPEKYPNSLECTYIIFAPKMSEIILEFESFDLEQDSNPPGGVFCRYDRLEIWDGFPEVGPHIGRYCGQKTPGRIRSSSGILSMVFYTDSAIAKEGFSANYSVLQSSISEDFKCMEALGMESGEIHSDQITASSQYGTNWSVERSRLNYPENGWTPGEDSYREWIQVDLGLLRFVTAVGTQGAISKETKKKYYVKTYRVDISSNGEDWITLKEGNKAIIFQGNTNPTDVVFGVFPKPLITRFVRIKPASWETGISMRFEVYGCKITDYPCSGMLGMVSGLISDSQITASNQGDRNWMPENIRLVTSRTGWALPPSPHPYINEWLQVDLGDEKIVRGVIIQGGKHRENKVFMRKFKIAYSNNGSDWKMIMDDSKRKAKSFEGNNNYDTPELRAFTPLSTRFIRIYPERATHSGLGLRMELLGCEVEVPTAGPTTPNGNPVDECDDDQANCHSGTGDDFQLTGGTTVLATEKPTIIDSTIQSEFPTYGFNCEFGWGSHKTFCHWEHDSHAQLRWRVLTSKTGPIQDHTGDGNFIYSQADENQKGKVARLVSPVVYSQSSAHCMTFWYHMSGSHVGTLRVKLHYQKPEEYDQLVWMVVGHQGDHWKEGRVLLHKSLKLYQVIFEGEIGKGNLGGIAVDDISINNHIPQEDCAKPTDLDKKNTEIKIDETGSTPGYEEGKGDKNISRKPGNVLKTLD
# Experiment: biochemical
# Format: binding
# Conditions: for IC50: VEGF165/NRP-1 binding inhibition
# Method: Selected compounds were tested in vitro by measuring the inhibition binding of VEGF165 to NRP-1. This assay allows the determination of percentage inhibition of the tested compound at a predetermined concentration. Determination of the Inhibitory Activity of the Tested Compounds. The evaluation of the inhibitory effect of peptidomimetics was performed using an enzymatic method denoting the spectrophotometric displacement of the VEGF165 ligand from the specific receptor by the evaluated compound. The studies were performed using polystyrene 96-well plates (Maxisorb, Nunc.). The Procedure for Determining the Inhibition of VEGF165/NRP-1. To evaluate the biological inhibitory activity of selected molecules in each well of flat bottom polystyrene plate of 96-wells (Maxisorb, Nunc,) a 100 μl of a solution containing 2 μg/ml of anti-Fc IgG (Sigma-Aldrich) dissolved in a phosphate buffer PBS (PBS, Sigma) was placed. The plate was allowed to stand overnight at 4° C. The next day, wells were washed three times with 100 μl PBS, and then saturated with 2% bovine serum albumin (BSA, Sigma) in PBS in order to eliminate non-specific interactions. After 2 hours of incubation at 37° C. the following solutions were added portionwise: 50 μl of purified recombinant rat NRP1-Fc (R&D Systems, Abingdon, UK) in a solution of 20 ng/well protein dissolved in PBS-BSA 0.1% tween-80 0.005% (PBT), 50 μl of compound solution in PBT in an appropriate concentration […] The total volume of added solution was 150 μl. After an overnight incubation at 4° C., the wells were washed with PBT and treated with streptavidin-HRP polymer (horseradish peroxidase, Sigma). The plate was incubated for 1 hour at room temperature. […] After 2 hours, the absorbance was measured at wavelength of 415 nm with respect to 470 nm. […] In the control wells the tested compound was absent, but the respective concentration of DMSO was maintained. The heptapeptide A7R (ATWLPPR (SEQ ID NO:1)) was used as a positive control on every 96-well plate.
decrease in inhibition with decreasing concentration (reduction of concentrations of 10-0.3 μM),IC50,Compound
5 fold,,"ATWLPPR [A7R, ATWLPPR, reference compound]"
,180 nM,N=C(N)NCCCC(NC(=O)C1CCC(=O)NCCCCC(N)C(=O)N2CCCC2C(=O)N1)C(=O)O (stereo not drawn) [H-c[Lys-Pro-Glu]-Arg-OH] (H-KPER-OH; lactam 1-3; configuration not given here)
,460 nM,"N=C(N)NCCCC(NC(=O)C1CCC(=O)NC(CCCCN)C(=O)N2CCCC2C(=O)NC(C(=O)NC(CCCNC(=N)N)C(=O)O)CCC(=O)NC(CCCCN)C(=O)N2CCCC2C(=O)N1)C(=O)O (stereo not drawn) [(c[Lys-Pro-Glu]-Arg-OH)2] (I: KPER-OH / II: KPER-OH; amide I:3-II:N, I:N-II:3; configuration not given here)"

# From patent US10800814B2, “Cyclic peptidomimetics, compositions containing them and their use in the treatment of diseases associated with angiogenesis” (priority 2015, dated 2020)
